Measured values taken from patent publication US20060264460A1 (Wyeth, priority 2005, published 2006).

Biological target: T1, human Cot/Tpl2 kinase (Homo sapiens, UniProt P41279)
T1 construct: human Cot/Tpl2 kinase construct encoding residues 30-398; 6His (N); made in house; host or cells: Sf9 insect cells, baculovirus system (BD Biosciences)
Experiment: Tpl2/Cot kinase assay: GST-MEK1 phosphorylation detected by ELISA (DELFIA Eu)
Assay type: biochemical
Settings: 0.4 nM Tpl2, 35 nM GST-MEK1, 50 uM ATP, 1 h at 30° C.
Procedure, shortened: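 His-tagged human Tpl2 from Sf9 cells, Ni-affinity and size-exclusion purified (monomer). 0.4 nM Tpl2 with 35 nM GST-MEK1, 50 uM ATP, MOPS pH 7.2, 1% DMSO, 1 h at 30° C; EDTA stop. MEK1 Ser217/221 phosphorylation detected by anti-phospho-MEK1 and Eu-labelled secondary ELISA; IC50 fitted.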

T1 sequence (P41279 30-398): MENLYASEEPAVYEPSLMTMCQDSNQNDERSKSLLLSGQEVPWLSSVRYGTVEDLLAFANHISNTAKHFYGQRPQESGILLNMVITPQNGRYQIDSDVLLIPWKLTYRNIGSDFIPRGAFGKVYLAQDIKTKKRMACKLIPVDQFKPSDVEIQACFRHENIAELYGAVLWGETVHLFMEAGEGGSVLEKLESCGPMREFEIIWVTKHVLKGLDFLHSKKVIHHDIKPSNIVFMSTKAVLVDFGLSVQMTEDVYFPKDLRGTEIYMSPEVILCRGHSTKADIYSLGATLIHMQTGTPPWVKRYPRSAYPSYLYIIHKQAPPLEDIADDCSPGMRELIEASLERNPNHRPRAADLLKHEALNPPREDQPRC

Question: `N#Cc1cc(CNc2ccc3ncc(C#N)c(Nc4ccc(F)c(Cl)c4)c3c2)ccc1OCC(=O)O` [Example 34, (4-{[4-(3-Chloro-4-fluoro-phenylamino)-3-cyano-quinolin-6-ylamino]-methyl}-2-cyano-phenoxy)-acetic acid] was tested. Which IC50 did it give?
Answer: Its IC50 is 260 nM.

Question: With `N#Cc1cnc2c(Br)cc(NCc3cnc[nH]3)cc2c1NC1CCCCCC1` [Example 97, 6-((1H-imidazol-5-yl)methylamino)-8-bromo-4-(cycloheptylamino)quinoline-3-carbonitrile] as the compound, how does the IC50 read?
Answer: Its IC50 is 230 nM.

Question: For `N#Cc1cccc(CNc2ccc3ncc(C#N)c(Nc4ccc(F)c(Cl)c4)c3c2)c1` [Example 10, 4-(3-Chloro-4-fluoro-phenylamino)-6-(3-cyano-benzylamino)-quinoline-3-carbonitrile], which IC50 is on record?
Answer: The IC50 was 200 nM.

Question: Which IC50 does the source give for `CC(C)C(=O)Nc1cc(NCc2cccnc2)cc2c(Nc3cccc(Cl)c3)c(C#N)cnc12` [Example 81, N-(4-(3-chlorophenylamino)-3-cyano-6-(pyridin-3-ylmethylamino)quinolin-8-yl)isobutyramide] here?
Answer: Its IC50 is greater than 40000 nM.

Question: With `N#Cc1cnc2ccc(NCc3ccc([N+](=O)[O-])cc3)cc2c1Nc1ccc(F)c(Cl)c1` [Example 17, 4-(3-Chloro-4-fluoro-phenylamino)-6-(4-nitro-benzylamino)-quinoline-3-carbonitrile] as the compound, how does the IC50 read?
Answer: The IC50 was 190 nM.

Question: How did the IC50 turn out when `N#Cc1cnc2ccc(NCc3cccc(OC(F)(F)F)c3)cc2c1Nc1ccc(F)c(Cl)c1` [Example 148, 6-(3-(trifluoromethoxy)benzylamino)-4-(3-chloro-4-fluorophenylamino)quinoline-3-carbonitrile] was run?
Answer: The IC50 was 2200 nM.

Question: For `Cn1ccnc1CNc1cc(C(F)(F)F)c2ncc(C#N)c(Nc3ccc(F)c(Cl)c3)c2c1` [Example 236, 4-[(3-chloro-4-fluorophenyl)amino]-6-{[(1-methyl-1H-imidazol-2-yl)methyl]amino}-8-(trifluoromethyl)quinoline-3-carbonitrile], which IC50 is on record?
Answer: The IC50 was 200 nM.

Question: How did the IC50 turn out when `CN(C)Cc1ccc2cc(CNc3ccc4ncc(C#N)c(Nc5ccc(F)c(Cl)c5)c4c3)[nH]c2c1` [Example 154, 4-(3-chloro-4-fluorophenylamino)-6-((6-((dimethylamino)methyl)-1H-indol-2-yl)methylamino)quinoline-3-carbonitrile] was run?
Answer: Its IC50 is 2500 nM.

Same assay, conditions: Table 2; Tpl2/Cot kinase, GST-MEK1 substrate, 50 uM ATP

Question: `CN1CCCN(CCCn2cc(CNc3cc(Cl)c4ncc(C#N)c(Nc5ccc(F)c(Cl)c5)c4c3)nn2)CC1` [Example 625] was tested. Which IC50 did it give?
Answer: Its IC50 is 48 nM.

Question: `CN(Cc1cn(C)cn1)c1cc(Br)c2ncc(C#N)c(Nc3ccc(F)c(Cl)c3)c2c1` [Example 611] was tested. Which IC50 did it give?
Answer: The IC50 was greater than 3000 nM.

Question: Which IC50 does the source give for `CCc1[nH]cnc1CNc1cc(Cl)c2ncc(C#N)c(Nc3ccc(F)c(Cl)c3)c2c1` [Example 476] here?
Answer: The IC50 was 16 nM.

Question: How did the IC50 turn out when `N#Cc1cnc2c(Br)cc(NCc3cn(CCCN4CCCCC4)nn3)cc2c1Nc1ccc(F)c(Cl)c1` [Example 538] was run?
Answer: The IC50 was 3.4 nM.

Question: `N#Cc1cnc2c(Cl)cc(NCC(O)CO)cc2c1Nc1ccc(F)c(Cl)c1` (stereo not drawn) [Example 631] was tested. Which IC50 did it give?
Answer: The IC50 was 590 nM.

Question: How did the IC50 turn out when `CN1CCC(n2cc(CN(C)c3cc(Br)c4ncc(C#N)c(Nc5ccc(F)c(Cl)c5)c4c3)nn2)CC1` [Example 506] was run?
Answer: Its IC50 is 22 nM.

Question: With `Cn1cnc(CNc2cc(Cl)c3ncc(C#N)c(Nc4ccc(F)c(Cl)c4)c3c2)n1` [Example 478] as the compound, how does the IC50 read?
Answer: Its IC50 is 530 nM.

Question: For `N#Cc1cnc2c(Br)cc(NCc3ccc(C(O)(C(F)(F)F)C(F)(F)F)cc3)cc2c1Nc1ccc(F)c(Cl)c1` [Example 428], which IC50 is on record?
Answer: Its IC50 is greater than 40000 nM.

Same assay, conditions: Tpl2/Cot kinase, GST-MEK1 substrate, 50 uM ATP

Question: `CC(C)(C)OC(=O)N1CCCC(Cn2cc(CNc3cc(Cl)c4ncc(C#N)c(Nc5ccc(F)c(Cl)c5)c4c3)nn2)C1` (stereo not drawn) [Example 714] was tested. Which IC50 did it give?
Answer: The IC50 was 250 nM.

Question: Which IC50 does the source give for `CN(C)C(=O)N1CCC[C@@H]1Cn1cc(CNc2cc(Cl)c3ncc(C#N)c(Nc4ccc(F)c(Cl)c4)c3c2)nn1` [Example 897] here?
Answer: The IC50 was 110 nM.

Question: `Cc1cc(Cn2cc(CNc3cc(Cl)c4ncc(C#N)c(Nc5ccc(F)c(Cl)c5)c4c3)nn2)ccn1` [Example 837] was tested. Which IC50 did it give?
Answer: Its IC50 is 11 nM.

Question: For `N#Cc1cnc2c(Br)cc(NCc3nc[nH]n3)cc2c1Nc1ccc(F)c(Cl)c1` [Example 667], which IC50 is on record?
Answer: The IC50 was 110 nM.

Question: With `N#Cc1cnc2c(Cl)cc(NCC3CCCN(C(=O)CN4CCCCCC4)C3)cc2c1Nc1ccc(F)c(Cl)c1` (stereo not drawn) [Example 903] as the compound, how does the IC50 read?
Answer: Its IC50 is 620 nM.
